Reference: patent US20150337010A1, “Method for treating or preventing liver related diseases” (Tunghai University, priority 2014, published 2015)

How the values were obtained:
Format in all cases: in vivo, C57BL/6 male mice
[1] = LDL-cholesterol and triglyceride in blood plasma of high-fat diet fed mice; settings: high-fat diet mice, 5, 15 or 25 mg/kg/day intra-peritoneal (groups 3~5), compared with group 2 (high-fat diet, saline)
Method: (§1) The experiments using the experimental mice were conducted according to the IACUC-100-12 protocol approved by Academia Sinica Institutional Animal Care and Utilization Committee (IACUC) ethics committee. All C57BL/6 male mice (6-weeks-old) were randomly divided into 5 groups that contain 8 mice in each. These mice were individually housed in a room temperature at 24±2° C. and 55±10% humidity with 12 hours of light cycle. Herein, the control mice in the group 1 were fed with standard laboratory diet and administrated 0.9% normal saline by intra-peritoneal injection. In the group 2, the mice were fed with high-fat diet to induce the fatty liver, and administrated 0.9% normal saline by intra-peritoneal injection. In the group 3, the mice were fed with high-fat diet and administrated with peptide of SEQ ID No.1 by intra-peritoneal injected with the dose of 5 mg/kg/day. In the group 4, the mice were fed with high-fat diet and administrated with peptide of SEQ ID No.1 by intra-peritoneal injected with the dose of 15 mg/kg/day. […]
The blood samples collected from the mice in each group indicated in example 1 into the microcentrifuge tubes containing heparin (10 μL, 1000 IU/ml). […] The concentration of low density lipoprotein-cholesterol (hereafter referred to as LDL) and triglyceride in the isolated blood plasma from the mice in the each group were determined by using the commercial detection kit.

mouse liver = assay: Histopathological examination (H&E) of mouse liver, high-fat diet fed mice; settings: high-fat diet mice, 5, 15 or 25 mg/kg/day intra-peritoneal (groups 3~5)
Method: The experiments using the experimental mice were conducted according to the IACUC-100-12 protocol approved by Academia Sinica Institutional Animal Care and Utilization Committee (IACUC) ethics committee. All C57BL/6 male mice (6-weeks-old) were randomly divided into 5 groups that contain 8 mice in each. These mice were individually housed in a room temperature at 24±2° C. and 55±10% humidity with 12 hours of light cycle. Herein, the control mice in the group 1 were fed with standard laboratory diet and administrated 0.9% normal saline by intra-peritoneal injection. In the group 2, the mice were fed with high-fat diet to induce the fatty liver, and administrated 0.9% normal saline by intra-peritoneal injection. In the group 3, the mice were fed with high-fat diet and administrated with peptide of SEQ ID No.1 by intra-peritoneal injected with the dose of 5 mg/kg/day. In the group 4, the mice were fed with high-fat diet and administrated with peptide of SEQ ID No.1 by intra-peritoneal injected with the dose of 15 mg/kg/day. In the group 5, the mice were fed with high-fat diet and administrated with peptide of SEQ ID No.1 by intra-peritoneal injected with the dose of 25 mg/kg/day. The inter-peritoneal injections were performed on these mice between third to sixth weeks of culture.
The livers were excised from the mice of the each group; soaked in formalin; dehydrated by passing consecutively through […] and then embedded in paraffin wax. The each embedded liver tissue block was cut into […] sections and deparaffinization by soaking in xylene. The histological section of the mouse liver in the each group was consecutively stained by hematoxylin and eosin (H&E) and rinsed with water. The photomicrographs of the histological section of the mouse liver in the each group obtained using Zeiss Axiophot microscope (Thornwood Co, USA.) were shown in FIG. 3 and FIG. 4.

TNFα = assay: Western blotting of liver protein extract: TNFα; settings: high-fat diet mice, groups 3~5 (5, 15, 25 mg/kg/day i.p.), normalized with tubulin, compared to group 2
Method: as §1, with “injection.” for “injection. In the group 3, the mice were fed with high-fat diet and administrated with peptide of SEQ ID No.1 by intra-peritoneal injected with the dose of 5 mg/kg/day. In the group 4, the mice were fed with high-fat diet and administrated with peptide of SEQ ID No.1 by intra-peritoneal injected with the dose of 15 mg/kg/day.”
(§2) Protein concentration of extract was determined by Lowry's protein assay method, first. […]
(§3) According to the methods in example 4 and 5, preparing the protein extract of mouse liver in the each group and then the expression pattern of TNFα and IL-6 in mouse liver of the each group was determined by western blotting. The results were shown in FIG. 5 and FIG. 6, wherein the expression of tubulin was utilized as internal control in FIG. 5 and FIG. 6 and the relative amount of TNFα and IL-6 in mouse liver of the each group were separately quantified and normalization with the internal control.

IL-6 = assay: Western blotting of liver protein extract: IL-6; settings: high-fat diet mice, groups 3~5 (5, 15, 25 mg/kg/day i.p.), normalized with tubulin, compared to group 2
Method: as §1, with “injection.” for “injection. In the group 3, the mice were fed with high-fat diet and administrated with peptide of SEQ ID No.1 by intra-peritoneal injected with the dose of 5 mg/kg/day. In the group 4, the mice were fed with high-fat diet and administrated with peptide of SEQ ID No.1 by intra-peritoneal injected with the dose of 15 mg/kg/day.”
as §2, §3

Bcl-2 = assay: Western blotting of liver protein extract: Bcl-2; settings: high-fat diet mice, groups 3~5 (5, 15, 25 mg/kg/day i.p.), normalized with tubulin, compared with group 2
Method: (§4) The experiments using the experimental mice were conducted according to the IACUC-100-12 protocol approved by Academia Sinica Institutional Animal Care and Utilization Committee (IACUC) ethics committee. All C57BL/6 male mice (6-weeks-old) were randomly divided into 5 groups that contain 8 mice in each. These mice were individually housed in a room temperature at 24±2° C. and 55±10% humidity with 12 hours of light cycle. Herein, the control mice in the group 1 were fed with standard laboratory diet and administrated 0.9% normal saline by intra-peritoneal injection. […]
as §2
(§5) The protein extract of the mouse liver of the each group was prepared in example 4 and then to determine the expressions of apoptosis and survive related proteins using western blotting of example 5. The expression pattern of the apoptosis and survive related proteins were shown in FIG. 7 to FIG. 12, wherein the expression of tubulin was utilized as the internal control in western blot analysis in FIG. 7, FIG. 9 and FIG. 11, and the relative expression levels of the apoptosis and survive related proteins in mouse liver were normalized with tubulin for quantification in FIG. 8, FIG. 10 and FIG. 12. […]

Bax = assay: Western blotting of liver protein extract: Bax; settings: high-fat diet mice, groups 3~5 (5, 15, 25 mg/kg/day i.p.), normalized with tubulin, compared with group 2
Method: as §4, §2, §5

Caspase-9 = assay: Western blotting of liver protein extract: Caspase-9; settings: high-fat diet mice, groups 3~5 (5, 15, 25 mg/kg/day i.p.), normalized with tubulin, compared with group 2
Method: as §4, §2, §5

Caspase-3 = assay: Western blotting of liver protein extract: Caspase-3; settings: high-fat diet mice, groups 3~5 (5, 15, 25 mg/kg/day i.p.), normalized with tubulin, compared with group 2
Method: as §4, §2, §5

Caspase-8 = assay: Western blotting of liver protein extract: Caspase-8; settings: high-fat diet mice, groups 3~5 (5, 15, 25 mg/kg/day i.p.), normalized with tubulin, compared with group 2
Method: as §4, §2, §5

cytochrome c = assay: Western blotting of liver protein extract: cytochrome c; settings: high-fat diet mice, groups 3~5 (5, 15, 25 mg/kg/day i.p.), normalized with tubulin, compared with group 2
Method: as §4, §2, §5

IGFIR = assay: Western blotting of liver protein extract: IGFIR; settings: high-fat diet mice, groups 3~5 (5, 15, 25 mg/kg/day i.p.), normalized with tubulin, compared with group 2
Method: as §4, §2, §5

PI3K = assay: Western blotting of liver protein extract: PI3K; settings: high-fat diet mice, groups 3~5 (5, 15, 25 mg/kg/day i.p.), normalized with tubulin, compared with group 2
Method: as §4, §2, §5

AKT = assay: Western blotting of liver protein extract: AKT; settings: high-fat diet mice, groups 3~5 (5, 15, 25 mg/kg/day i.p.), normalized with tubulin, compared with group 2
Method: as §4, §2, §5

[2] = system: matrix metalloproteinase-9; assay: Western blotting of liver protein extract: MMP-9 (hepatic fibrosis biomarker); settings: high-fat diet mice, groups 3~5 (5, 15, 25 mg/kg/day i.p.), normalized with tubulin, compared with group 2
Method: as §4, with “injection. In the group 2, the mice were fed with high-fat diet to induce the fatty liver, and administrated 0.9% normal saline by intra-peritoneal injection.” for “injection.”
as §2
According to method in example 5, protein extract of mouse liver in the each group prepared in example 4 was subjected to determine the expression pattern and relative level of matrix metalloproteinase-9 (hereafter referred to as MMP 9). The results were shown in FIG. 13 and FIG. 14, wherein in FIG. 13, the expression of tubulin was utilized as the internal control in the western blotting and in FIG. 14, the quantified expression level of MMP-9 in the mouse liver of the each group was calculated with normalized with quantified expression level of tubulin.

PPARα = assay: Western blotting of liver protein extract: PPARα; settings: high-fat diet mice, groups 3~5 (5, 15, 25 mg/kg/day i.p.), normalized with tubulin, compared with group 2
Method: as §4, with “injection. In the group 2, the mice were fed with high-fat diet to induce the fatty liver, and administrated 0.9% normal saline by intra-peritoneal injection.” for “injection.”
as §2
According to method in example 5, protein extract of mouse liver in each group prepared in example 4 was subjected to determine the expression pattern and relative level of PPARα. The results were shown in FIG. 15 and FIG. 16, wherein the expression of tubulin was utilized as the internal control in FIG. 15 and the quantified expression level of PPARα in the mouse livers of the each group was calculated with normalized with quantified expression level of tubulin in FIG. 16.

peptide of SEQ ID No.1: isolated peptide containing an amino acid sequence of SEQ ID No.1; obtainable by extraction, hydrolyzation or chemical synthesis (VHVV)
concentration of LDL in blood plasma [1]: obviously decreased | concentration of triglyceride in blood plasma [1]: obviously decreased | fat accumulation in the mouse liver (H&E) (mouse liver; compared with group 2): obviously decreased | giant oil drops in the mouse liver (H&E) (mouse liver; group 2 filled with giant oil drops): never was observed the giant oil drop | arrangement of hepatocytes in the mouse liver (H&E) (mouse liver; group 2 loosely arranged): tightly arranged hepatocytes | expression level of TNFα in mouse liver (TNFα): obviously reduced | expression level of IL-6 in mouse liver (IL-6): obviously reduced | expression level of Bcl-2 in mouse liver (Bcl-2): elevated | expression level of Bax (pro-apoptotic factor) in mouse liver (Bax): obviously suppressed | expression level of Caspase-9 (pro-apoptotic factor) in mouse liver (Caspase-9): obviously suppressed | expression level of Caspase-3 (pro-apoptotic factor) in mouse liver (Caspase-3): obviously suppressed | expression level of Caspase-8 (pro-apoptotic factor) in mouse liver (Caspase-8): obviously suppressed | expression level of cytochrome c (pro-apoptotic factor) in mouse liver (cytochrome c): obviously suppressed | expression level of survival related protein IGFIR (pIGF-IR) in mouse liver (IGFIR): obviously higher | expression level of survival related protein PI3K in mouse liver (PI3K): obviously higher | expression level of survival related protein AKT (pAKT) in mouse liver (AKT): obviously higher | expression level of MMP-9 in mouse liver [2]: obviously suppressed | expression level of PPARα in mouse liver (PPARα): obviously increased
